Laboratory results: patent publication US11123413B2, “Carbapenemases for use with antibiotics for the protection of the intestinal microbiome” (priority 2015, dated 2021)
Values joined by “and” are separate entries in the source; they are usually repeats but may differ in a detail not shown here. Equal values may be shown once.

Experiments:
gut microbiome = system: gut microbiome; set-up: species or system Yorkshire piglets; settings: in vivo
Experimental: The animals were treated with ertapenem (30 mg/kg) via intravenous infusion one a day for a total of 7 days.
Two pre-treatment fecal samples were obtained, the first 4 days after the animals arrived at the animal treatment facility (Day −7), and the second 7 days after arrival (Day −4). An additional 3 fecal samples were collected at Day 4, Day 8, and Day 9. The fecal samples were collected using the OMNIgene GUT sample collection kits (OMR-200, DNA Genotek, Ontario, Canada) and stored at room temperature away from light until all samples were collected. DNA isolated from the fecal samples was subjected to deep sequencing of the intestinal microbiome and analyses.
DNA was isolated from the fecal samples and subjected to whole genome shotgun sequencing using an Illumine HiSeq system with a target of 20 million 100 bp single reads per sample. […]
The percent similarity based on the relative bacterial strain abundance was calculated. […] Animals began ertapenem treatment on Day 1 and the percent similarity decreased every day the animals were evaluated. […]
A statistical analysis was performed to determine the probability that the microbiomes before and after antibiotic treatment remained the same or were different. The microbiome sequence data were analyzed using a parameterization of the Dirichlet-Multinomial distribution (La Rosa et al., 2012) to perform a Likelihood Ratio Test. […]

[1] = Oral P2A and intravenous meropenem in jejunal-fistulated dogs; format: in vivo, laboratory beagles; settings: peak level in dog jejunum; meropenem 30 mg/kg IV alone; individual dogs
Experimental: The ability of P2A to degrade meropenem in the dog intestinal tract was evaluated using laboratory beagles that had permanent jejunal fistulas. The fistulas allowed the repeated collection of jejunal chyme specimens from these animals. Dogs were treated with peroral P2A (1 mg/kg) in a liquid formulation (PBS buffer), and/or intravenous meropenem (30 mg/kg). Serum samples were collected and serum meropenem levels quantified. Jejunal chyme samples were collected and meropenem and P2A levels were quantified. Meropenem levels in serum and chyme were measured using a plate diffusion method using meropenem susceptible Micrococcus luteus TS504 as the test strain. P2A activity levels in chyme were determined spectrophotometrically using meropenem as a substrate. Meropenem hydrolysis was monitored at a wavelength of 297 nm.

Structure (SMILES)	microbiome diversity (percent similarity of strain relative abundance) (gut microbiome)	Meropenem [1]
C[C@@H](O)[C@H]1C(=O)N2C(C(=O)O)=C(S[C@@H]3CN[C@H](C(=O)Nc4cccc(C(=O)O)c4)C3)[C@H](C)[C@H]12 [ertapenem]	causes a loss of diversity in the microbiome	–
C[C@@H](O)[C@H]1C(=O)N2C(C(=O)O)=C(S[C@@H]3CN[C@H](C(=O)N(C)C)C3)[C@H](C)[C@H]12 [Meropenem]	–	3.0 ug/ml (2×) and 3.2 ug/ml
